As usually defined, the LD50 is the dose at which mortality reaches 50%.

The test system of series [1] is animal tumor systems. The conditions noted are these: reported in J. Antibiotics 27:254-259 (1974) and others; cited from earlier work.
In series [2] the test system is B. cereus ATCC 9634. Briefly: Minimum inhibitory concentration, broth dilution method. It counts as cell-based. Conditions: Bacillus cereus, ATCC9634, B. cereus ATCC 9634. From the text:
(§1) The minimum inhibitory concentration of the present antibiotics as determined by the broth dilution method are shown in Table 1.

Series [3] concerns B. megarterium NRRL B-938. The description is as above. It counts as cell-based.
Source text: as §1

The test system of series [4] is B. subtilis ATCC 6633. The description is as above. The conditions noted are these: Bacillus subtilis, ATCC6633, B. subtilis ATCC 6633. It counts as cell-based.
Source text: as §1

The subject of series [5] is Candida albicans IAM 4905. Described as above. It counts as cell-based. Conditions: Candida albicans, IAM4905, Candida albicans IAM 4905.
Source text: as §1

Series [6] deals with Candida tropicalis. The description is as above. Format: cell-based.
Source text: as §1

Series [7] has as its system Coryne. bovis 1810. The series is described as above. Format: cell-based. Conditions: Corynebacterium bovis.
Source text: as §1

In series [8] the test system is Micrococcus flavs. Described as above. It counts as cell-based. The conditions noted are these: Micrococcus flavs, read-out: Minimum inhibitory concentration.
Source text: as §1

For series [9], the system named is Mycobacterium smegmatis ATCC 607. The series is described as above. It counts as cell-based. Conditions: Mycolicibacterium smegmatis, ATCC607, Mycobacterium smegmatis ATCC 607.
Source text: as §1

The test system of series [10] is Proteus morganii. The series is described as above. Format: cell-based. The conditions noted are these: Morganella morganii.
Source text: as §1

Series [11] deals with Ps. fluorescens NIHJB-254. The series is described as above. It counts as cell-based. The conditions noted are these: Pseudomonas fluorescens, NIHJB254, Ps. fluorescens NIHJB-254.
Source text: as §1

The test system of series [12] is Sarcina lutea ATCC 9341. The description is as above. It counts as cell-based. Conditions: Micrococcus luteus, ATCC9341, Sarcina lutea ATCC 9341.
Source text: as §1

The test system of series [13] is Staph. aureus FDA209P. The series is described as above. The conditions noted are these: Staphylococcus aureus, FDA209P. It counts as cell-based.
Source text: as §1

In series [14] the test system is Staph. aureus Smith. Described as above. The conditions noted are these: Staphylococcus aureus. It counts as cell-based.
Source text: as §1

Series [15] concerns mouse L-1210 leukemia. Kind of series: Prolongation of survival time of mice inoculated with L-1210 leukemia. It counts as in vivo, BDF1 mice. The conditions noted are these: for Prolongation of the survival time T/C: BDF1 mice, 1 × 10^6 L-1210 cells i.p., day 30. From the text:
(§2) For example, BDF1 mice were inoculated intraperitoneally with 1 × 10^6 L-1210 cells/mouse and 24 hrs. after inoculation the drug was intraperitoneally injected once daily for 10 days consecutively. On day 30, the % of prolongation of the survival time to control was as follows: […]

Series [16] can be described thus: Acute toxicity, LD50 upon intraperitoneal injection. Format: in vivo. The conditions noted are these: in vivo, ip, read-out: LD50. From the text:
The LD50 values upon intraperitoneal injection of the
antibiotics of the present invention are shown in the […]

Series [17] can be described thus: Solubility. Format: physicochemical.
The subject of series [18] is gram-positive bacteria. Briefly: Antimicrobial activity against gram-positive bacteria. Format: cell-based. Conditions: listed as Baumycin B1.
Source text: as §1

In series [19] the test system is animal tumors. Briefly: Inhibition of growth of animal tumors. It counts as in vivo. Conditions: experimental animal tests; listed as Baumycin B1.
Source text: as §2

The nature of series [20]: Toxicity in experimental animal tests. Format: in vivo.

≈ marks a conversion by molar mass, not a printed value. Entries after “also recorded” stand apart in the source; their conditions may differ.

`CC(=O)[C@]1(O)Cc2c(O)c3c(c(O)c2[C@@H](O[C@H]2C[C@H](N)[C@H](O)[C@H](C)O2)C1)C(=O)c1c(O)cccc1C3=O` [carminomycin]: the “Activity in animal tumor systems” value in series [1] is listed as “active in several animal tumor systems”.
Turning to `COc1cccc2c1C(=O)c1c(O)c3c(c(O)c1C2=O)CC(O)(C(C)=O)CC3OC1CC(N)C(OC(CC(C)O)OC(C)C(=O)O)C(C)O1` (stereo not drawn) [BM-B1], the MIC in series [2] was determined as 100 µg/mL (≈ 145 µM); in [3], 100 µg/mL (≈ 145 µM); in series [4] it was 100 µg/mL (≈ 145 µM); in [5], 100 µg/mL (≈ 145 µM); in series [6], 100 µg/mL (≈ 145 µM); in series [7], 50 µg/mL (≈ 72.7 µM). The MIC in series [8] was 50 µg/mL (≈ 72.7 µM); in series [9], 100 µg/mL (≈ 145 µM); in [10] it was above 100 µg/mL; in [11], 100 µg/mL (≈ 145 µM); in series [12], 50 µg/mL (≈ 72.7 µM); in series [13], 50 µg/mL (≈ 72.7 µM). The MIC in series [14] was 50 µg/mL (≈ 72.7 µM). For the same compound, the “Prolongation of the survival time T/C” value in series [15] (0.125 mg./kg./day i.p. once daily for 10 days) was 93%; in series [15] (0.25 mg./kg./day i.p. once daily for 10 days) it was 99%; in series [15] (0.5 mg./kg./day i.p. once daily for 10 days), 99%; in series [15] (1 mg./kg./day i.p. once daily for 10 days) it was 105%; in [15] (2 mg./kg./day i.p. once daily for 10 days) it was 117%; in [15] (4 mg./kg./day i.p. once daily for 10 days), 136%. The “Prolongation of the survival time T/C” value in series [15] (6 mg./kg./day i.p. once daily for 10 days) stood at 165%; in series [15] (8 mg./kg./day i.p. once daily for 10 days) it was 147%. Further, the “Inhibitory effect on mouse L-1210 leukemia” value in [15] (in words) is “marked inhibitory effects”. For the same compound, in [16], the LD50 is 40 to 60 mg/kg. The Solubility entry in [17] (in acidic water, methyl cellosolve, methanol, ethanol, n-propanol and n-butanol) is given as “Soluble”; in series [17] (in ethyl acetate, acetone, methylene chloride, chloroform, carbon tetrachloride, benzene, toluene, ethyl ether and n-hexane), “Insoluble”; in series [17] (in water, listed as Baumycin B1), “Insoluble”. Besides, in series [18], the Antimicrobial activity entry is recorded as “inhibit the growth of gram-positive bacteria; also recorded: possess antimicrobial activity, especially against gram-positive bacteria”. Besides, the “Inhibition of growth of animal tumors / antitumor activity” value in series [19] is “inhibit the growth of various animal tumors; also recorded: marked antitumor activity; also recorded: marked inhibitory action against animal malignant tumors, especially ascitic and solid tumors”. The Toxicity entry in [20] is given as “low toxicity”.

Source of the values: patent publication US4147778A, “Antibiotic baumycin complex and components thereof” (Zaidan Hojin Biseibutsu Kagaku Kenkyu Kai, priority 1976, dated 1979).
